In patent US8828988B2 (Tetraphase Pharmaceuticals, Inc., priority 2009, dated 2014):
In brackets after ≈: the same amount, converted by molar mass. Like-named read-outs stand apart in the source and are kept apart here.

Columns and labels:
[1] = system: S. aureus ATCC 13709 (Smith); assay: Mouse systemic infection model, S. aureus septicemia; conditions: survival after 48 hours
E. coli ATCC 25922 = assay: Mouse systemic infection model, E. coli septicemia; conditions: survival after 48 hours
[2] = system: Klebsiella pneumoniae KP153, tetracycline-resistant, tet(A), MDR, ESBL+; assay: MIC assay, KP153; type: cell-based; conditions: Table 9, read-out: MIC Klebsiella pneum KP153 (tet)A
[3] = system: Staphylococcus aureus SA158, tetracycline-resistant tet(K); assay: MIC assay, SA158; type: cell-based
[4] = system: Enterococcus faecalis EF159, tetracycline-resistant, tet(M); assay: MIC assay, EF159; type: cell-based
[5] = system: E. coli S30 extract system, coupled in vitro transcription/translation, firefly luciferase readout; assay: In vitro transcription/translation (TnT) assay; type: biochemical
[6] = system: Staphylococcus aureus SA100, ATCC 13709, MSSA, Smith strain; assay: MIC assay, SA100; type: cell-based
[7] = Pharmacokinetic analysis in Sprague-Dawley rats
in vivo = conditions: Sprague-Dawley, rat
[8] = system: Streptococcus pneumoniae SP160, tetracycline-resistant, tet(M); assay: MIC assay, SP160; type: cell-based
[9] = system: Escherichia coli EC107, ATCC 25922; assay: MIC assay, EC107; type: cell-based
[10] = system: Staphylococcus aureus SA101, ATCC 29213, MSSA; assay: MIC assay, SA101; type: cell-based
[11] = system: H. influenzae isolates (Eurofins-Medinet, recent clinical isolates); assay: MIC50 and MIC90 analysis (Example 22)
[12] = system: Streptococcus pneumoniae SP106, ATCC 49619; assay: MIC assay, SP106; type: cell-based
[13] = system: Enterococcus faecalis EF103, ATCC 29212; assay: MIC assay, EF103; type: cell-based
[14] = system: Enterobacter cloacae EC108, ATCC 13047; assay: MIC assay, EC108; type: cell-based; conditions: ATCC13047, Table 9, read-out: MIC Enterobacter cloaceae ATCC 13047
[15] = system: Pseudomonas aeruginosa PA111, ATCC 27853; assay: MIC assay, PA111; type: cell-based; conditions: ATCC27853, Table 9, read-out: MIC P. aeruginosa ATCC 27853
[16] = system: Staphylococcus aureus SA161, HA-MRSA, tetracycline-resistant, tet(M); assay: MIC assay, SA161; type: cell-based
[17] = system: Escherichia coli EC155, tetracycline-resistant, tet(A); assay: MIC assay, EC155; type: cell-based
[18] = system: Klebsiella pneumoniae KP109, ATCC 13883; assay: MIC assay, KP109; type: cell-based; conditions: ATCC13883, Table 9, read-out: MIC Klebsiella pneum ATCC 13883
[19] = system: Acinetobacter baumannii AB110, ATCC 19606; assay: MIC assay, AB110; type: cell-based; conditions: ATCC19606, Table 9, read-out: MIC A.baum AB110
[20] = system: S. pneumoniae isolates (Eurofins-Medinet, recent clinical isolates); assay: MIC50 and MIC90 analysis (Example 22)
Description: (§1) Frozen bacterial strains were thawed and subcultured onto Mueller Hinton Broth (MHB) or other appropriate media (Streptococcus requires blood and Haemophilus requires hemin and NAD). Following incubation overnight, the strains were subcultured onto Mueller Hinton Agar and again incubated overnight. […] Isolated colonies were selected to prepare a starting inoculum equivalent to a 0.5 McFarland standard. […] Antibiotics (stored frozen, thawed and used within 3 hours of thawing) and compounds were further diluted to the desired working concentrations.
(§2) The assays were run as follows. Fifty μL of MHB was added to wells 2-12 of a 96-well plate. One hundred μL of appropriately diluted antibiotic or compound was added to well 1. Fifty μL of antibiotics or compound was removed from well 1 and added to well 2 and the contents of well 2 mixed by pipetting up and down five times. Fifty μL of the mixture in well 2 was removed and added to well 3 and mixed as above. Serial dilutions were continued in the same manner through well 12. Fifty μL was removed from well 12 so that all contained 50 μL. Fifty μL of the working inoculum was then added to all test wells. A growth control well was prepared by adding 50 μL of working inoculum and 50 μL of MHB to an empty well. The plates were then incubated at 37° C. overnight, removed from the incubator and each well was read on a plate reading mirror. The lowest concentration (MIC) of test compound that inhibited the growth of the bacteria was recorded.
(§3) MIC, MIC50 and MIC90 values were determined according to CLSI methodology. S. pneumoniae and H. influenzae isolates were obtained from Eurofins-Medinet and are recent clinical isolates. S. aureus strains were collected from various geographical sources.

[21] = system: S. aureus strains collected from various geographical sources; assay: MIC50 and MIC90 analysis (Example 22)
Description: as §1, §2, §3

[22] = after IV dosing, single dose 1 mg/kg

SMILES: CN(C)c1ncc(O)c2c1C[C@H]1C[C@H]3[C@H](N(C)C)C(O)=C(C(N)=O)C(=O)[C@@]3(O)C(O)=C1C2=O [Compound 109]
- PD50 in the mouse septicemia model against S. aureus ([1]; CD-1 mice, IP infection, intravenous treatment one hour post-challenge): < 0.3 mg/kg
- PD50 ([1]; mouse septicemia, S. aureus ATCC 13709, intravenous treatment one hour post-challenge): <0.30 mg/kg
- PD50 in the mouse septicemia model against E. coli (E. coli ATCC 25922; CD-1 mice, IP infection, treatment one hour post-challenge): 4.3 mg/kg
- PD50 (E. coli ATCC 25922; mouse septicemia, E. coli ATCC 25922, treatment one hour post-challenge): 4.3 mg/kg
- MIC [2]: > 32 µg/mL
- MIC ([3]; Table 8, read-out: MIC S. aureus tetK): 2 µg/mL (≈ 4.36 µM)
- MIC ([3]; Table 9, read-out: MIC S. aureus SA158 (tet)K): 1 µg/mL (≈ 2.18 µM)
- MIC ([4]; Table 8, read-out: MIC E. faecalis tetM): 32 µg/mL (≈ 69.8 µM)
- MIC ([4]; Table 9, read-out: MIC E. faecalis EF159 (tet)M): 32 µg/mL (≈ 69.8 µM)
- TnT IC50 [5]: 0.76 µg/mL
- IC50, in vitro transcription/translation system ([5]; E. coli S30 extract, luciferase readout): sub-μg/ml
- E. coli TnT ([5]; Table 8): 0.9 µg/mL
- MIC ([6]; Table 9, read-out: MIC S. aureus ATCC 13709): 0.13 µg/mL (≈ 0.284 µM)
- MIC ([6]; Table 12, read-out: MIC S. aureus ATCC 13709): 0.25 µg/mL (≈ 0.545 µM)
- Clobs ([7]; IV, single dose 1 mg/kg, mean): 15.311 mL/min/kg
- Vzobs ([7]; IV, single dose 1 mg/kg, mean): 4.17697 L/kg
- half-life ([7]; IV, single dose 1 mg/kg, mean): 3.14 h
- AUC [7, 22]: 1087 ng·h/mL
- Cl [7, 22]: 15.3 mL/min/kg
- Vz [7, 22]: 4.177 L/kg
- % F. ([7]; oral bioavailability, PO 10 mg/kg vs IV 1 mg/kg): 12.74%
- AUC(0-t) (in vivo; iv, 1 mg/kg): 1090 ng·h/mL
- Cmax (in vivo; iv, 1 mg/kg): 603 ng/mL
- Tmax (in vivo; iv, 1 mg/kg): 0.08 h
- half-life (in vivo; iv, 1 mg/kg): 3 h
- bioavailability (in vivo; oral, 10 mg/kg): 13%
- AUC(0-t) (in vivo; po, 10 mg/kg): 1250 ng·h/mL
- Cmax (in vivo; po, 10 mg/kg): 192 ng/mL
- Tmax (in vivo; po, 10 mg/kg): 1.4 h
- half-life (in vivo; po, 10 mg/kg): 4.51 h
- MIC ([8]; Table 8, read-out: MIC S. pneumoniae tetM): 8 µg/mL (≈ 17.4 µM)
- MIC ([8]; Table 9, read-out: MIC S. pneum SP160 (tet)M): 8 µg/mL (≈ 17.4 µM)
- MIC ([9]; ATCC25922, Table 8, read-out: MIC E. coli ATCC 25922): 0.13 µg/mL (≈ 0.284 µM)
- MIC ([9]; ATCC25922, Table 9, read-out: MIC E. coli ATCC 25922): 0.13 µg/mL (≈ 0.284 µM)
- MIC ([9]; ATCC25922, Table 12, read-out: MIC E. coli ATCC 25922): 0.13 µg/mL (≈ 0.284 µM)
- MIC ([10]; Table 8, read-out: MIC S. aureus ATCC 29213): 0.031 µg/mL (≈ 0.0676 µM)
- MIC ([10]; Table 9, read-out: MIC S. aureus ATCC 29213): 0.03 µg/mL (≈ 0.0654 µM)
- MIC Range ([11]; H. influenzae (n = 12)): 0.063 to 4 µg/mL
- MIC50 ([11]; Haemophilus influenzae): 0.5 µg/mL (≈ 1.09 µM)
- MIC90 ([11]; Haemophilus influenzae): 2 µg/mL (≈ 4.36 µM)
- MIC ([12]; ATCC49619, Table 8, read-out: MIC S. pneumoniae ATCC 49619): 0.031 µg/mL (≈ 0.0676 µM)
- MIC ([12]; ATCC49619, Table 9, read-out: MIC S. pneum ATCC 49619): 0.03 µg/mL (≈ 0.0654 µM)
- MIC ([13]; Enterococcus faecalis, ATCC29212, Table 8, read-out: MIC E. faecalis ATCC 29212): 1 µg/mL (≈ 2.18 µM)
- MIC E. faecalis ATCC 29212 ([13]; Table 9): 1 µg/mL (≈ 2.18 µM)
- MIC [14]: 1 µg/mL (≈ 2.18 µM)
- MIC [15]: 8 µg/mL (≈ 17.4 µM)
- MIC ([16]; Table 8, read-out: MIC S. aureus MRSA, tetM): 16 µg/mL (≈ 34.9 µM)
- MIC ([16]; Table 9, read-out: MIC MRSA (tet)M SA161): 32 µg/mL (≈ 69.8 µM)
- MIC ([17]; Table 8, read-out: MIC E. coli tetA): > 32 µg/mL
- MIC ([17]; Table 9, read-out: MIC E. coli EC155 (tet)A): > 32 µg/mL
- MIC [18]: 0.5 µg/mL (≈ 1.09 µM)
- MIC [19]: 0.5 µg/mL (≈ 1.09 µM)
- MIC Range ([20]; S. pneumoniae (n = 20)): ≦0.016-8 μg/ml
- MIC50 ([20]; Streptococcus pneumoniae): 2 µg/mL (≈ 4.36 µM)
- MIC90 ([20]; Streptococcus pneumoniae): 4 µg/mL (≈ 8.72 µM)
- MIC Range ([21]; S. aureus (n = 20)): ≦0.016-1 μg/ml
- MIC50 ([21]; Staphylococcus aureus): ≤ 0.016 µg/mL
- MIC90 ([21]; Staphylococcus aureus): ≤ 0.016 µg/mL
